Source: patent US20230029496A1, “AMINO ACID ALTERNATIVE CURING SYSTEM” (THE TEXAS A&M UNIVERSITY SYSTEM, priority 2019, published 2023)
Where “and” joins values, the source holds several entries; their conditions need not be identical. Identical values can stand only once. Like-named read-outs stand apart in the source and are kept apart here. Marks after values point to notes of the source that are not given here.

Columns and labels:
[1] = test system: Nitric Oxide Synthase (NOS) system; assay: Cure efficiency (NO-heme, total heme, nitrosylation) of cooked pre- and post-rigor pork semimembranosus muscle (Example 13); assay type: biochemical
Description: Cooked meat samples were analyzed for the degree of nitrosylation through residual nitrite from the Pearson and Tauber method from the modified Hornsey's procedure for analyzing small samples [103] from the supernatant and pellet. 2 mL or 2 g of the samples were treated with acetone to measure NO-heme concentration and for total heme concentration, 2 mL or 2 g of the samples were treated with acetone and hydrochloric acid. Both samples were measured using a spectrophotometer (2100 Series Spectrophotometer, Unico, Dayton, N.J.) and a 1 cm quartz cuvette. NO-heme concentration (ppm acid hematin) was read at 540 nm, and total heme concentration (ppm acid hematin) was determined at 640 nm to determine nitrosylation as the indication of the effectiveness of L-arginine in curing the samples. This procedure measured the conversion levels of myoglobin to nitrosohemochromagen, the cured meat color, and the amount of conversion as compared to the total pigmentation within the sample.
Curing efficiency or nitrosylation is calculated as the percentage conversion of NO-heme to total heme. Cure efficiency is the percentage of total pigment converted to nitroso pigment and indicates the degree of cured color fading. Cured meat pigment is extracted in a solution of 80% acetone and 20% water that extracts cured pigment heme. Total heme pigments are extracted using an acidified acetone solution that extracts heme from all heme proteins as first used by Hornsey. NO-heme concentration (as ppm acid hematin)=sample A540×290 determines the specific cure color pink from the rest of the heme pigmentation of the sample. Total heme concentration (ppm acid hematin)=sample A640×680 determines the total heme pigmentation of the sample. Cure efficiency (%)=(ppm of nitrosoheme […]ppm of total pigment)×100 and indicates how much of the product is cured and holds the cured pink stability once cooked.

[2] = test system: NOS system; assay: NO-heme, total heme, nitrosylation and cured color in test tube pork loin sausages (Example 11)
[3] = pH after immersion, pre-rigor pork semimembranosus muscle (first study); assay type: physicochemical
[4] = test system: NOS system; assay: Residual nitrite in test tube pork loin sausages (Example 11)
Description: Pork loins from a local meat distributor were procured on Mar. 18, 2019 and tested four weeks later on Apr. 18, 2019. A total of nine pounds of pork loins were split into thirds and ground through kidney, ½″, and ¼″ plates to make a restructured ham sausages formulated (Table 14) to contain either 1000 or 5000 ppm L-arginine which were stuffed in 2″ plastic casings and thermally processed. Three pounds of each grind size (9 pound batch) were mixed with high (5000 ppm), low (1000 ppm), or control (0 ppm) concentrations of brine at 25% addition using a Kitchen aid mixer. It was decided to lower the concentration of the L-arginine from 1500 ppm (Test 3) to 1000 ppm (Test 4) to verify that this concentration can generate acceptable levels of NO to develop cured color and residual nitrite for antioxidant and antimicrobial properties. Control and treatment met batches were stuffed in plastic casings in triplicate for each high, low, and control concentrations in one pound portions. […] The samples were tested for residual nitrite and nitroso-hemochromagen pigment (Table 14) one day after thermal processing cooking (April 19th to April 20th), then eight days after thermal processing on April 26th to determine any cure color fading and residual nitrite.

[5] = 2 mM L-arginine, cooked post rigor pellet
[6] = 2 mM L-arginine, cooked post rigor supernatant
[7] = 2 mM L-arginine, cooked pre-rigor pellet
[8] = 2 mM L-arginine, cooked pre-rigor supernatant
[9] = 4 mM L-arginine, cooked post rigor pellet
[10] = 4 mM L-arginine, cooked post rigor supernatant
[11] = 4 mM L-arginine, cooked pre-rigor pellet
[12] = 4 mM L-arginine, cooked pre-rigor supernatant
[13] = 8 mM L-arginine, cooked post rigor pellet
[14] = 8 mM L-arginine, cooked post rigor supernatant
[15] = 8 mM L-arginine, cooked pre-rigor pellet
[16] = 8 mM L-arginine, cooked pre-rigor supernatant
[17] = 16 mM L-arginine, cooked post rigor pellet
[18] = 16 mM L-arginine, cooked post rigor supernatant
[19] = 16 mM L-arginine, cooked pre-rigor pellet
[20] = 16 mM L-arginine, cooked pre-rigor supernatant
[21] = 32 mM L-arginine, cooked post rigor pellet
[22] = 32 mM L-arginine, cooked post rigor supernatant
[23] = 32 mM L-arginine, cooked pre-rigor pellet
[24] = 32 mM L-arginine, cooked pre-rigor supernatant
[25] = High (5000 ppm) L-arginine, 8 days post thermal processing
[26] = High (5000 ppm) L-arginine, one day after thermal processing
[27] = Low (1000 ppm) L-arginine, one day after thermal processing
[28] = during 8 days of refrigerated vacuum packaged storage

## N=C(N)NCCC[C@H](N)C(=O)O [L-arginine]
[1]; [5]
  NO-Heme: 16.10^b ppm
  Nitrosylation: 31.22^a %
  Total Heme: 62.56^a ppm
[1]; [6]
  NO-Heme: 23.76^a ppm
  Nitrosylation: 61.38^a %
  Total Heme: 64.43^a ppm
[1]; [7]
  NO-Heme: 19.02^a ppm
  Nitrosylation: 52.09^a %
  Total Heme: 61.48 ppm and 61.48^ab ppm
[1]; [8]
  NO-Heme: 26.02 ppm and 26.02^ab ppm
  Nitrosylation: 60.23^a %
  Total Heme: 50.43^a ppm
[1]; [9]
  NO-Heme: 19.72 ppm and 19.72^ab ppm
  Nitrosylation: 35.19^a %
  Total Heme: 67.72^a ppm
[1]; [10]
  NO-Heme: 22.81^a ppm
  Nitrosylation: 55.90^a %
  Total Heme: 73.33^a ppm
[1]; [11]
  NO-Heme: 18.82^a ppm
  Nitrosylation: 49.31^a %
  Total Heme: 52.07 ppm and 52.07^ab ppm
[1]; [12]
  NO-Heme: 28.17 ppm and 28.17^ab ppm
  Nitrosylation: 70.03^a %
  Total Heme: 40.86^a ppm
[1]; [13]
  NO-Heme: 18.34 ppm and 18.34^ab ppm
  Nitrosylation: 35.53^a %
  Total Heme: 63.58^a ppm
[1]; [14]
  NO-Heme: 25.98^a ppm
  Nitrosylation: 79.27^a %
  Total Heme: 62.90^a ppm
[1]; [15]
  NO-Heme: 16.38^a ppm
  Nitrosylation: 31.43^a %
  Total Heme: 80.07 ppm and 80.07^ab ppm
[1]; [16]
  NO-Heme: 32.98^a ppm
  Nitrosylation: 75.71^a %
  Total Heme: 45.11^a ppm
[1]; [17]
  NO-Heme: 18.42 ppm and 18.42^ab ppm
  Nitrosylation: 62.80^a %
  Total Heme: 51.68^a ppm
[1]; [18]
  NO-Heme: 20.54^a ppm
  Nitrosylation: 52.33^a %
  Total Heme: 54.46^a ppm
[1]; [19]
  NO-Heme: 26.56^a ppm
  Nitrosylation: 55.29^a %
  Total Heme: 123.31 ppm and 123.31^a ppm
[1]; [20]
  NO-Heme: 22.45 ppm and 22.45^ab ppm
  Nitrosylation: 55.02^a %
  Total Heme: 42.05^a ppm
[1]; [21]
  NO-Heme: 27.33 ppm and 27.33^a ppm
  Nitrosylation: 34.51^a %
  Total Heme: 85.11^a ppm
[1]; [22]
  NO-Heme: 25.50^a ppm
  Nitrosylation: 104.27^a %
  Total Heme: 59.73^a ppm
[1]; [23]
  NO-Heme: 33.37^a ppm
  Nitrosylation: 86.11^a %
  Total Heme: 53.72 ppm and 53.72^ab ppm
[1]; [24]
  NO-Heme: 27.67^ab ppm
  Nitrosylation: 66.20^a %
  Total Heme: 44.94^a ppm
[2]; [25]
  NO-Heme: 14.59^a ppm
  Nitrosylation: 38.65^a %
  Total Heme: 37.4^a ppm
[2]; [26]
  NO-Heme: 13.43^b ppm
  Nitrosylation: 60.58^b %
[2]; Low (1000 ppm) L-arginine, 8 days post thermal processing
  Total Heme: 28.56^b ppm
[2]; [27]
  Nitrosylation: 37.05^a %
[2]; [28]
  decrease in nitrosylation: 38-45%
[3]; 2 mM L-arginine, cooked
  pH after 2 hours of sample immersion: 5.88^a
[3]; 2 mM L-arginine, raw
  pH after 2 hours of sample immersion: 5.84^a
[3]; 4 mM L-arginine, cooked
  pH after 2 hours of sample immersion: 5.86^a
[3]; 4 mM L-arginine, raw
  pH after 2 hours of sample immersion: 5.85^a
[3]; 8 mM L-arginine, cooked
  pH after 2 hours of sample immersion: 5.87^a
[3]; 8 mM L-arginine, raw
  pH after 2 hours of sample immersion: 5.83^a
[3]; 16 mM L-arginine, cooked
  pH after 2 hours of sample immersion: 5.94^a
[3]; 16 mM L-arginine, raw
  pH after 2 hours of sample immersion: 5.88^a
[3]; 32 mM L-arginine, cooked
  pH after 2 hours of sample immersion: 6.05^a
[3]; 32 mM L-arginine, raw
  pH after 2 hours of sample immersion: 6.01^a
[3]; range over raw and cooked, 0-32 mM
  sample pH after the immersion phase: 5.83-6.05
[4]; High (5000 ppm) L-arginine, 8 days post thermal processing, refrigerated vacuum packaged
  Nitrite: 48.12^a ppm
[4]; [26]
  Nitrite: 66.73^a ppm
[4]; Low (1000 ppm) L-arginine, 8 days post thermal processing, refrigerated vacuum packaged
  Nitrite: 37.78^a ppm
[4]; [27]
  Nitrite: 79.16^a ppm
[4]; [28]
  residual nitrite decrease: 20-30 ppm
L-arginine 3000 PPM, Day 1
  pH: 5.91
L-arginine 3000 PPM, Day 7
  pH: 5.86
L-arginine 3000 PPM, Day 14
  pH: 6.02
L-arginine 3000 PPM, Day 28
  pH: 6.06
L-arginine 4000 PPM, Day 1
  pH: 5.92
L-arginine 4000 PPM, Day 7
  pH: 5.90
L-arginine 4000 PPM, Day 14
  pH: 5.96
L-arginine 4000 PPM, Day 28
  pH: 6.00
L-arginine 5000 PPM, Day 1
  pH: 5.87
L-arginine 5000 PPM, Day 7
  pH: 5.92
L-arginine 5000 PPM, Day 14
  pH: 5.94
L-arginine 5000 PPM, Day 28
  pH: 6.01
